# Reference: US20240116910A1, “Heterocycles as WIP1 Inhibitors” (PMV Pharmaceuticals, Inc., priority 2022, published 2024)
# Target: recombinant His-tag Wip1(2-420) protein (amino acids #2-420) (Homo sapiens (Human), UniProt O15297)
# Assay: Wip1(2-420) phosphatase enzyme FDP assay
# Assay type: biochemical
# Details: fluorescein diphosphate (FDP) substrate, RT 2 hours, fluorescence Ex485/Em535; read-out: WIP1 (Truncated 2-420) FDP Assay: IC50
# Description: The Human Wip1 (2-420, aa 2-420) or Wip1 full length (aa 1-605) DNA sequence was codon optimized and synthesized by Genscript for insect cell expression. The open reading frame of Wip1(2-420) with a N-terminal-His6 affinity tag followed by a TEV cleavage site was subcloned sites into the pFastBac1 expression vector. The recombinant bacmid DNA was transfected in Sf9 insect cells for baculovirus production. After 72 hours infection, the Sf9 cells were harvested by centrifugation and resuspended in lysis buffer containing 50 mM Tris/HCl, pH 8.0, 500 mM NaCl, 20% glycerol, Benzonase 0.5% CHAPS and Roche cOmplete™ EDTA free protease inhibitors. Cells were disrupted with microfluidizer and the debris was removed by centrifugation at 185,000 g for 1 hour. The supernatant was subjected to HisTrap FF for affinity purification. Proteins were eluted with a linear gradient of 0-500 mM imidazole in HisTrap buffer containing 50 mM Tris/HCl, pH 8.0, 500 mM NaCl and 20% glycerol, 0.05% CHAPS. The eluted protein was dialyzed against dialysis buffer (20 mM MES, 100 mM NaCl, 20% glycerol, 0.5 mM TCEP, 0.05% CHAPS) followed purification via HiTrap SP HP column. The protein was eluted with a gradient of 100 mM-2 M NaCl in dialysis buffer. His6-[…] was finally concentrated and loaded onto a size-exclusion column (NiLoad 16/600 Superdex 200 pg, GE Healthcare) pre-equilibrated with 50 mM MOPS (pH 7.5), 200 mM NaCl, 20% glycerol, 1 mM TCEP, 0.05% CHAPS and 0.1 mM EGTA. The peak fractions containing purified Nis6-Wip1(2-420) were pooled and concentrated to 1.0 mg/mL and flash frozen at −80° C.
# Wip1 Length and Wip1(2-420) Phosphatase Enzyme FDP Assays.
# Test compounds (252 mM stock in DMSO) were diluted 3 folds in series in DMSO and 1.2 μl per well were added into 384-well polypropylene black plates (Nunc). Twelve μl per well of Assay Buffer (100 mM NaCl, 50 mM MOPS, pH 7.5, 0.8 mM CHAPS, 0.1 mM EGTA, 30 mM MgCl2, 0.3 mM TCEP, 0.2 mg/mL BSA) was added followed by […] per well of 50.4 nM recombinant His-tag Wip1 full length protein (amino acids #1-605) or recombinant His-tag Wip1(2-420) protein (amino acids #2-420) in Assay Buffer and the plate was incubated at RT (22° C.) for 5 min. Ten mM of fluorescein diphosphate (FDP) in DMSO was diluted to […] in Assay Buffer and […] per well was added to the plate and incubated at RT (22° C.) for 2 hours. […] per well of 64.1 mM EDTA in water were added to stop the enzyme reaction. The plate was centrifuged at 1,200 rpm (Eppendorf 5810R Plate centrifuge) for 1 minute and fluorescence intensity (Ex485/Em535) was measured on Perkin Elmer Victor Reader. EC50 values were calculated using either Prism (GraphPad) or ActivityBase software (IDBS), The IC50 results are provided in Table M.
# recombinant His-tag Wip1(2-420) protein (amino acids #2-420), sequence (O15297 2-420): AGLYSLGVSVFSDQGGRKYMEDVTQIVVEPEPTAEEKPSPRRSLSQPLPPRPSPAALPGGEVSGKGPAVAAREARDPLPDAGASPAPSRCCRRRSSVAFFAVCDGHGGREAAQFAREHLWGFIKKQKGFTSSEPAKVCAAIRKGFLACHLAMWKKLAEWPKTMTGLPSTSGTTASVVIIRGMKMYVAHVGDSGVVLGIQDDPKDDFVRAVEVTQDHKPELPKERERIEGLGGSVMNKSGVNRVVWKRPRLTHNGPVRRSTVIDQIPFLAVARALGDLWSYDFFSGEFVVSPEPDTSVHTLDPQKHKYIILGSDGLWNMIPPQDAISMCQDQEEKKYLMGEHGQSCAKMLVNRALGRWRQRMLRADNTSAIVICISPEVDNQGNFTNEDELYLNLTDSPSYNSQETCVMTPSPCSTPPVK
row,Structure (SMILES),IC50
1,"C[C@@H](c1ccc(C(=O)N[C@@H](CC2CCCC2)C(=O)NC23CC(C2)C3)s1)N(C)c1cncc(Cl)c1 [Compound 96, (2S)-N-{bicyclo[1.1.1]pentan-1-yl}-2-({5-[(1S)-1-[(5-chloropyridin-3-yl)(methyl)amino]ethyl]thiophen-2-yl}formamido)-3-cyclopentylpropanamide]",76 nM
2,"C[C@H](Nc1cc(Cl)cnc1C(C)(C)O)c1ccc(C(=O)N[C@@H](CC2CCCC2)C(=O)NC2CC2)s1 [Compound 194, (2S)-2-({5-[(1S)-1-{[5-chloro-2-(2-hydroxypropan-2-yl)pyridin-3-yl]amino}ethyl]thiophen-2-yl}formamido)-3-cyclopentyl-N-cyclopropylpropanamide]",6 nM
3,"COc1ccc(-c2ncc(Cl)cc2N[C@H](C)c2ccc(C(=O)N[C@@H](CC3CCCC3)C(=O)NC3CC3)s2)cc1 [Compound 238, (2S)-2-({5-[(1R)-1-{[5-chloro-2-(4-methoxyphenyl)pyridin-3-yl]amino}ethyl]thiophen-2-yl}formamido)-3-cyclopentyl-N-cyclopropylpropanamide]",188 nM
4,"Cc1ncc(Cl)cc1N[C@@H](Cc1ccc(F)cc1)c1ccc(C(=O)N[C@@H](CC2CCCC2)C(=O)NC2CC2)s1 [Compound 223, (2S)-2-({5-[(1S)-1-[(5-chloro-2-methylpyridin-3-yl)amino]-2-(4-fluorophenyl)ethyl]thiophen-2-yl}formamido)-3-cyclopentyl-N-cyclopropylpropanamide]",11 nM
5,"COC[C@@H](Nc1cc(Cl)cnc1C)c1ccc(C(=O)N[C@@H](CC2CCCC2)C(=O)NC2CC2)s1 [Compound 158, (2S)-2-({5-[(1R)-1-[(5-chloro-2-methylpyridin-3-yl)amino]-2-methoxyethyl]thiophen-2-yl}formamido)-3-cyclopentyl-N-cyclopropylpropanamide]",1000 nM
6,"C[C@@H](Nc1cc(Cl)cnc1C(N)=O)c1ccc(C(=O)N[C@@H](CC2CCCC2)C(=O)NC23CC(C2)C3)s1 [Compound 132, 3-{[(1R)-1-(5-{[(1S)-1-({bicyclo[1.1.1]pentan-1-yl}carbamoyl)-2-cyclopentylethyl]carbamoyl}thiophen-2-yl)ethyl]amino}-5-chloropyridine-2-carboxamide]",76 nM
7,"C[C@@H](Nc1cc(Cl)cnc1CO)c1ccc(C(=O)N[C@@H](CC2CCCC2)C(=O)NC2CC2)s1 [Compound 106, (2S)-2-({5-[(1R)-1-{[5-chloro-2-(hydroxymethyl)129yridine-3-yl]amino}ethyl]thiophen-2-yl}formamido)-3-cyclopentyl-N-cyclopropylpropanamide]",472 nM
8,"Cc1ncc(Cl)cc1N[C@@H](C)c1ncc(C(=O)N[C@@H](CC2CCCC2)C(=O)NC23CC(C2)C3)s1 [Compound 310, (2S)-N-{bicyclo[1.1.1]pentan-1-yl}-2-({2-[(1S)-1-[(5-chloro-2-methylpyridin-3-yl)amino]ethyl]-1,3-thiazol-5-yl}formamido)-3-cyclopentylpropanamide]",1020 nM
9,"Cc1ncc(Cl)cc1N[C@@H](C)c1ccc(C(=O)N[C@H](C(=O)NC23CC(C2)C3)C(C)(C)C)s1 [Compound 246, (2S)-N-{bicyclo[1.1.1]pentan-1-yl}-2-({5-[(1S)-1-[(5-chloro-2-methylpyridin-3-yl)amino]ethyl]thiophen-2-yl}formamido)-3,3-dimethylbutanamide]",2210 nM
10,"Cc1ncc(Cl)cc1N[C@@H](C)c1ccc(C(=O)N[C@@H](CC23CCC(CC2)CC3)C(=O)NC2CC2)s1 [Compound 256, (2S)-3-{bicyclo[2.2.2]octan-1-yl}-2-({5-[(1S)-1-[(5-chloro-2-methylpyridin-3-yl)amino]ethyl]thiophen-2-yl}formamido)-N-cyclopropylpropanamide]",6 nM

# Continued, values first:
row,IC50,Structure (SMILES)
1,19 nM,"COC(=O)CNC(=O)[C@H](CC1CCCC1)NC(=O)c1ccc([C@H](C)Nc2cc(Cl)cnc2C)s1 [Compound 91, methyl 2-[(2S)-2-({5-[(1S)-1-[(5-chloro-2-methylpyridin-3-yl)amino]ethyl]thiophen-2-yl}formamido)-3-cyclopentylpropanamido]acetate]"
2,7 nM,"Cc1ncc(Cl)cc1N[C@@H](C)c1ccc(C(=O)N[C@@H](CC2CCCC2)C(=O)N[C@@H]2CC[C@H](F)C2)s1 [Compound 258, (2S)-2-({5-[(1S)-1-[(5-chloro-2-methylpyridin-3-yl)amino]ethyl]thiophen-2-yl}formamido)-3-cyclopentyl-N-[(1R,3S)-3-fluorocyclopentyl]propanamide]"
3,8 nM,"Cc1ncc(Cl)cc1N[C@@H](C)c1ccc(C(=O)N[C@@H](CC2CCCCC2)C(=O)NC23CC(C2)C3)s1 [Compound 109, (2S)-N-{bicyclo[1.1.1]pentan-1-yl}-2-({5-[(1S)-1-[(5-chloro-2-methylpyridin-3-yl)amino]ethyl]thiophen-2-yl}formamido)-3-cyclohexylpropanamide]"
4,6 nM,"Cc1ncc(Cl)cc1N[C@@H](C)c1ccc(C(=O)N[C@@H](CC2CCCC2)C(=O)Nc2ccc3ncc(C#N)cc3c2)s1 [Compound 148, (2S)-2-({5-[(1S)-1-[(5-chloro-2-methylpyridin-3-yl)amino]ethyl]thiophen-2-yl}formamido)-N-(3-cyanoquinolin-6-yl)-3-cyclopentylpropanamide]"
5,301 nM,"COc1ncc(Cl)cc1N[C@H](C)c1ccc(C(=O)N[C@@H](CC2CCCC2)C(=O)NC2CC2)s1 [Compound 35, (2S)-2-({5-[(1R)-1-[(5-chloro-2-methoxypyridin-3-yl)amino]ethyl]thiophen-2-yl}formamido)-3-cyclopentyl-N-cyclopropylpropanamide]"
6,10 nM,"Cc1ncc(Cl)cc1N[C@@H](C)c1ccc(C(=O)N[C@@H](CC2CCCC2)C(=O)Nc2ccn(C)n2)s1 [Compound 154, (2S)-2-({5-[(1S)-1-[(5-chloro-2-methylpyridin-3-yl)amino]ethyl]thiophen-2-yl}formamido)-3-cyclopentyl-N-(1-methyl-1H-pyrazol-3-yl)propanamide]"
7,4 nM,"Cc1ncc(Cl)cc1N[C@@H](C)c1ccc(C(=O)N[C@@H](CC2CCCCC2)C(=O)Nc2ccc(F)cc2)s1 [Compound 112, (2S)-2-({5-[(1S)-1-[(5-chloro-2-methylpyridin-3-yl)amino]ethyl]thiophen-2-yl}formamido)-3-cyclohexyl-N-(4-fluorophenyl)propanamide]"
8,102 nM,"COCCOCCNC(=O)[C@H](CC1CCCC1)NC(=O)c1ccc([C@H](C)Nc2cc(Cl)cnc2C)s1 [Compound 204, (2S)-2-({5-[(1S)-1-[(5-chloro-2-methylpyridin-3-yl)amino]ethyl]thiophen-2-yl}formamido)-3-cyclopentyl-N-[2-(2-methoxyethoxy)ethyl]propanamide]"
9,314 nM,"Cc1ncc(Cl)cc1N[C@H](C)c1ccc(C(=O)N[C@@H](CC2CCCC2)C(=O)N[C@@H]2CC2(F)F)s1 [Compound 22, (2S)-2-({5-[(1R)-1-[(5-chloro-2-methylpyridin-3-yl)amino]ethyl]thiophen-2-yl}formamido)-3-cyclopentyl-N-[(1R)-2,2-difluorocyclopropyl]propanamide]"
10,5 nM,"COc1ccc(NC(=O)[C@H](CC2CCCC2)NC(=O)c2ccc([C@H](C)Nc3cc(Cl)cnc3C)s2)cn1 [Compound 276, (2S)-2-({5-[(1S)-1-[(5-chloro-2-methylpyridin-3-yl)amino]ethyl]thiophen-2-yl}formamido)-3-cyclopentyl-N-(6-methoxypyridin-3-yl)propanamide]"
11,19 nM,"Cc1ncc(Cl)cc1N[C@@H](C)c1ccc(C(=O)N[C@@H](CC2CCCC2)C(N)=O)s1 [Compound 138, (2S)-2-({5-[(1S)-1-[(5-chloro-2-methylpyridin-3-yl)amino]ethyl]thiophen-2-yl}formamido)-3-cyclopentylpropanamide]"
